The NIST ThermoML archive (doi:10.1016/j.tca.2011.12.010)
± gives the expanded uncertainty stated by the source.

Test: molar heat capacity at constant pressure
Settings: 101.33 kPa, Crystal 2, Small sample (50 mg) DSC

O=[N+]([O-])[O-].O=[N+]([O-])[O-].O=[N+]([O-])[O-].O=[N+]([O-])[O-].[K+].[K+].[Mg+2] [bis-potassium magnesium nitrate]
Settings | molar heat capacity at constant pressure [J/K/mol]
298.15 K | 308 ± 6.2
299 K | 308.7 ± 6.2
300 K | 309.8 ± 6.2
301 K | 310.5 ± 6.2
302 K | 310.8 ± 6.2
303 K | 311.5 ± 6.2
304 K | 312.2 ± 6.2
305 K | 312.9 ± 6.3
306 K | 314 ± 6.3
307 K | 314.7 ± 6.3
308 K | 315.7 ± 6.3
309 K | 316.4 ± 6.3
310 K | 317.5 ± 6.4
311 K | 318.5 ± 6.4
312 K | 319.2 ± 6.4
313 K | 319.9 ± 6.4
314 K | 322 ± 6.4
315 K | 322 ± 6.4
316 K | 322.7 ± 6.5
317 K | 323.8 ± 6.5
318 K | 324.8 ± 6.5
319 K | 325.9 ± 6.5
320 K | 326.9 ± 6.5
321 K | 328 ± 6.6
325 K | 329 ± 6.6
326 K | 328 ± 6.6
327 K | 329.7 ± 6.6
328 K | 330.4 ± 6.6
329 K | 331.1 ± 6.6
330 K | 331.1 ± 6.6
331 K | 331.8 ± 6.6
332 K | 332.9 ± 6.7
333 K | 334.3 ± 6.7
334 K | 334.3 ± 6.7
335 K | 334.6 ± 6.7
336 K | 335.3 ± 6.7
337 K | 335.7 ± 6.7
338 K | 336.4 ± 6.7
339 K | 336.7 ± 6.7
340 K | 337.1 ± 6.7
341 K | 338.1 ± 6.8
342 K | 338.5 ± 6.8
343 K | 338.8 ± 6.8
344 K | 339.9 ± 6.8
345 K | 341.3 ± 6.8
346 K | 342 ± 6.8
347 K | 341.6 ± 6.8
348 K | 340.6 ± 6.8
349 K | 340.6 ± 6.8
350 K | 340.9 ± 6.8
351 K | 341.3 ± 6.8
352 K | 342 ± 6.8
353 K | 342.7 ± 6.9
354 K | 343.4 ± 6.9
355 K | 344.1 ± 6.9
356 K | 344.8 ± 6.9
357 K | 345.5 ± 6.9
358 K | 346.2 ± 6.9
359 K | 346.9 ± 6.9
360 K | 347.6 ± 7
361 K | 348.3 ± 7
362 K | 349.3 ± 7
363 K | 350.4 ± 7
364 K | 351.4 ± 7
365 K | 352.5 ± 7.1
366 K | 353.5 ± 7.1
367 K | 354.6 ± 7.1
368 K | 355.3 ± 7.1
369 K | 356 ± 7.1
370 K | 356.7 ± 7.1
371 K | 357.7 ± 7.2
372 K | 357.8 ± 7.2
373 K | 358.6 ± 7.2
374 K | 360.4 ± 7.2
375 K | 362.7 ± 7.3
376 K | 367.5 ± 7.4
377 K | 372.4 ± 7.4
378 K | 374.9 ± 7.5
379 K | 375.6 ± 7.5
380 K | 375.8 ± 7.5
381 K | 376 ± 7.5
